# Laboratory results: patent US12441687B2, “Drp1-filamin complex formation inhibitors” (RDISCOVERY, LLC, priority 2019, dated 2025)
# Columns and labels:
# [1] = tested on: SOD1-G93A mice (ALS model); experiment: Survival of ALS model mice (SOD1-G93A) with cilnidipine administration; assay type: in vivo; conditions: osmotic pump 5,000 μg/kg intraperitoneally implanted after onset of ALS, 28 days, FIG. 4(b)
# Experimental: Effects of cilnidipine on intractable disease were examined. In this Exemplary Experiment, cilnidipine was administered to model mice of amyotrophic lateral sclerosis (ALS), and survival rate was examined. The ALS model mice employed were SOD1-G93A mice.
# FIG. 4(a) is a drawing that illustrates an experiment schedule. An osmotic pump containing 5,000 μg/kg of cilnidipine was intraperitoneally implanted into each model mouse after onset of ALS, the drug was administered continuously over 28 days, and the survival rate was measured.
# [2] = tested on: model mice of inflammatory bowel disease (DSS); experiment: Survival of DSS-induced inflammatory bowel disease model mice; assay type: in vivo; conditions: osmotic pump 25,000 μg/kg, 17 days, 3% DSS, FIG. 5(b)
# Experimental: Effects of cilnidipine on intractable disease were examined. In this Exemplary Experiment, cilnidipine was administered to model mice of inflammatory bowel disease, and survival rate was examined. The model mice of inflammatory bowel disease employed were mice on which inflammatory bowel disease is inducible by administrating dextran sulfate (DSS).
# FIG. 5(a) is a drawing that illustrates an experiment schedule. From three days before the administrating DSS started, an osmotic pump containing 25,000 μg/kg of cilnidipine was intraperitoneally implanted into each mouse, the drug was administered continuously over 17 days, and the survival rate was measured.
# From the first day (Day 0) the cilnidipine administration started, the mice were fed tap water containing 3% DSS as a drinking water for seven days. Over a period between Day 7 after the start of cilnidipine administration to Day 14, the drinking water was reverted to ordinary tap water. Also a control group was prepared, in which the mice were fed a solvent only in place of cilnidipine.
# [3] = tested on: myocardial cells from neonatal rat; experiment: Aging of myocardial cell (p53 accumulation) under hypoxic-reoxygenation stimulation; assay type: cell-based; conditions: Exemplary Experiment 10, 1 μM, hypoxic (1%) 18 hours then normoxic (21%) 18 hours, FIG. 10
# Experimental: How the cilnidipine derivatives, synthesized in Exemplary Experiment 7, can affect aging of myocardial cell was examined. Aging of myocardial cell was evaluated on the basis of accumulation of p53 protein. More specifically, each of cilnidipine, and the individual compounds namely NS4-019, NS4-021 and NS4-043, synthesized in Exemplary Experiment 7, was added to a culture medium of the myocardial cells from neonatal rat, so as to adjust the final concentration to 1 μM, and the cells were incubated for one hour. The cells were then subjected to hypoxic-reoxygenation stimulation, by cultivation under hypoxic (1%) environment for 18 hours, followed by cultivation under normoxic (21%) environment for 18 hours. The cells in each culture were then fixed with 4% paraformaldehyde, and immunostained with anti-p53 antibody and anti-α-actinin antibody. α-Actinin is a marker of myocardial cell. The cells in each culture were observed under a fluorescent microscope, and percentage of p53 accumulating cells relative to the α-actinin-positive cells was determined.
# Drp1-filamin complex = Drp1-filamin complex (Homo sapiens, UniProt O00429+P21333); conditions: Non Patent Literature 1; cited from earlier work
# calcium channel = experiment: Calcium channel blocking: intracellular calcium increase after potassium chloride stimulation in Neuro-2a cells (Fura 2-AM); assay type: cell-based, murine
# Experimental: Effect of blocking the calcium channel by the cilnidipine derivative, synthesized in Exemplary Experiment 7, was examined. More specifically, first, Neuro-2a cells which belong to a cell line of murine neuroblastoma were cultured in serum-free culture media, and Fura 2-AM (from Dojindo Laboratories) as a calcium ion probe was added to the culture media, so as to transduce it into the cells.
# The culture media were then replaced with HEPES buffered nutrient solution (pH7.4), and each of cilnidipine, and the individual compounds namely NS4-019, NS4-021, NS4-043, NS4-238, and NS4-700, synthesized in Exemplary Experiment 7, was added to the culture media so as to adjust the final concentrations to 0, 1, 10, 100, and 1,000 nM, and the culture media were incubated for 30 minutes.
# Depolarizing stimulation was then given by adding potassium chloride solution (to a final concentration of 60 mM), and inflow of calcium ions into the cells was observed under a fluorescent microscope.
# FIG. 12 is a graph that illustrates increase of intracellular calcium ion concentration after potassium chloride stimulation. In FIG. 12, “CIL” represents results obtained from the cells having cilnidipine added thereto, “NS4-238” represents results obtained from the cells having NS4-238 added thereto, and “**” represents presence of significant difference at p<0.01. […]
# [4] = tested on: hypertensive and hyperglycemic patients; experiment: Retrospective analysis of blood HbA1c in hypertensive and hyperglycemic patients; assay type: in vivo, human; conditions: patients administered cilnidipine compared with patients administered amlodipine, FIG. 7
# Experimental: Effects of cilnidipine on intractable disease were examined. The results shown in this Exemplary Experiment were obtained from retrospective analyses on patients in Kyushu University Hospital. In this Exemplary Experiment, percentages of blood HbA1c in hypertensive and hyperglycemic patients administered amlodipine, and in hypertensive and hyperglycemic patients administered cilnidipine, were evaluated.
# [5] = tested on: myocardial cells from the neonatal rat; experiment: Evaluation of degree of mitochondrial division under hypoxia (MitoTracker Green FM, image analysis); assay type: cell-based
# Experimental: A system for quantitatively evaluating degree of intracellular mitochondrial division was built. More specifically, myocardial cells obtained from a neonatal rat were cultured under normoxia (20%) or under hypoxia (1%) for 16 hours. The cells were then stained with a fluorescent dye (MitoTracker Green FM, from Thermo Fisher Scientific Inc.) that selectively stains mitochondria. The cells were observed under a fluorescent microscope, and the shape of mitochondria was quantified by image analysis.
# FIG. 2(c) is a graph that illustrates length of mitochondria from the myocardial cells of a neonatal rat cultured under normoxia or hypoxia. In FIG. 2(c), “Normoxia” represents results obtained from culture under the normal oxygen concentration, and “Hypoxia” represents results obtained from culture under the low oxygen concentration. […]
# Each of the aforementioned compounds was added to a culture medium of the myocardial cells from the neonatal rat, so as to adjust the final concentration to 1 μM, the cells were incubated for one hour, and further cultured under hypoxic environment for 16 hours. The cells were then stained in the same way as described in Exemplary Experiment 1 using MitoTracker Green FM (from Thermo Fischer Scientific Inc.), observed under a fluorescent microscope, and the shape of mitochondria was quantified. […]
# [6] = tested on: H9c2 cell overexpressing wild type filamin A gene fused with mCherry tag; experiment: Mitochondrial division promoted by overexpressed wild type filamin A in H9c2 cells; assay type: cell-based, murine; conditions: Exemplary Experiment 9, 1 μM, 24 hours, FIG. 9(b)
# Experimental: (§1) An expression vector of wild type filamin A gene fused with mCherry tag, or, an expression vector of A1545T mutant of filamin A gene fused with mCherry tag was transduced into H9c2 cell, which is a murine heart striated muscle cell line, and allowed to overexpress. Also a group, having an expression vector of mCherry transduced and allowed to overexpress therein, was prepared for comparison.
# (§2) The cells were cultured for 24 hours, cilnidipine or NS4-238 was added to the culture medium while adjusting the final concentration to 1 μM, and the cells were further cultured for 24 hours. Also a group having DMSO added thereto in place of the drugs was prepared for comparison.
# (§3) The cells were then stained in the same way as described in Exemplary Experiment 1 using MitoTracker Green FM (from Thermo Fischer Scientific Inc.). The cells were observed under a fluorescent microscope, and the shape of mitochondria was quantified by image analysis.
# [7] = tested on: model mice of type 1/2 diabetes (STZ); experiment: Blood sugar level in streptozotocin model mice of type 1/2 diabetes; assay type: in vivo; conditions: STZ 200 mg/kg mice, osmotic pump 5,000 μg/kg from 14th day, FIG. 6
# Experimental: Effects of cilnidipine on intractable disease were examined. In this Exemplary Experiment, cilnidipine was administered to model mice of type 1/2 diabetes, and the blood sugar level was measured over time. The model mice of type 1/2 diabetes employed were mice intraperitoneally administered 200 mg/kg of streptozotocin (STZ) on the 42nd day after birth. Also mouse without streptozotocin administration were prepared for comparison.
# Blood sugar levels of mice in the individual groups were measured over time after the start of experiment. On the 14th day after the start of experiment, an osmotic pump containing 5,000 μg/kg of cilnidipine or the solvent only was implanted into each mouse in each group, for prolonged administration.
# [8] = tested on: H9c2 cell overexpressing A1545T mutant of filamin A gene fused with mCherry tag; experiment: Mitochondrial division promoted by overexpressed A1545T mutant of filamin A in H9c2 cells; assay type: cell-based, murine; conditions: Exemplary Experiment 9, 1 μM, 24 hours, FIG. 9(b)
# Source text: A disease called filamin cardiomyopathy has been known to involve A1539T mutation (substitution of adenine at position 1539 to thymine) on filamin-C gene. Then influence of A1545T mutant of filamin A gene, similar to A1539T mutant of filamin-C gene, on the shape of mitochondria of myocardial cell was examined.
# as §1, §2, §3
# Chain of Drp1-filamin complex (O00429 whole entry): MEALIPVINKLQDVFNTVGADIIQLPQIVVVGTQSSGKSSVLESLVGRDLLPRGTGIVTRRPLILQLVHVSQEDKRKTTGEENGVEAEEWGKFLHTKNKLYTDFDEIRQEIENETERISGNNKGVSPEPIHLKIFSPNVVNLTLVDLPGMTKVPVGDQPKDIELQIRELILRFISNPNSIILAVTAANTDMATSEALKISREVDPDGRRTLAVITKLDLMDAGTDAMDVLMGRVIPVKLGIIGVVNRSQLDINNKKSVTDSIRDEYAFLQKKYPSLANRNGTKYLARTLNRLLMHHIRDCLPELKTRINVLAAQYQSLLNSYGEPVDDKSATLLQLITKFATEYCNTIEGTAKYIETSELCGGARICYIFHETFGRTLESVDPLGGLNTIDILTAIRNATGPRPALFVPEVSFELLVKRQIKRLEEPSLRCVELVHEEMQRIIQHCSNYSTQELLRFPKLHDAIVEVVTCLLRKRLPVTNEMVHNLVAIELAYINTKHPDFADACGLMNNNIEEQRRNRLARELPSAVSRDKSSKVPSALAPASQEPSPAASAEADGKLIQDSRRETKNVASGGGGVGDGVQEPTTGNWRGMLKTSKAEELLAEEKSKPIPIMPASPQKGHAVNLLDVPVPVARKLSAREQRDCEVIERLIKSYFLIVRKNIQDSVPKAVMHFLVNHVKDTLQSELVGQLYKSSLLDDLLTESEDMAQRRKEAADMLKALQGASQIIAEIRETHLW
# Chain of Drp1-filamin complex (P21333 whole entry): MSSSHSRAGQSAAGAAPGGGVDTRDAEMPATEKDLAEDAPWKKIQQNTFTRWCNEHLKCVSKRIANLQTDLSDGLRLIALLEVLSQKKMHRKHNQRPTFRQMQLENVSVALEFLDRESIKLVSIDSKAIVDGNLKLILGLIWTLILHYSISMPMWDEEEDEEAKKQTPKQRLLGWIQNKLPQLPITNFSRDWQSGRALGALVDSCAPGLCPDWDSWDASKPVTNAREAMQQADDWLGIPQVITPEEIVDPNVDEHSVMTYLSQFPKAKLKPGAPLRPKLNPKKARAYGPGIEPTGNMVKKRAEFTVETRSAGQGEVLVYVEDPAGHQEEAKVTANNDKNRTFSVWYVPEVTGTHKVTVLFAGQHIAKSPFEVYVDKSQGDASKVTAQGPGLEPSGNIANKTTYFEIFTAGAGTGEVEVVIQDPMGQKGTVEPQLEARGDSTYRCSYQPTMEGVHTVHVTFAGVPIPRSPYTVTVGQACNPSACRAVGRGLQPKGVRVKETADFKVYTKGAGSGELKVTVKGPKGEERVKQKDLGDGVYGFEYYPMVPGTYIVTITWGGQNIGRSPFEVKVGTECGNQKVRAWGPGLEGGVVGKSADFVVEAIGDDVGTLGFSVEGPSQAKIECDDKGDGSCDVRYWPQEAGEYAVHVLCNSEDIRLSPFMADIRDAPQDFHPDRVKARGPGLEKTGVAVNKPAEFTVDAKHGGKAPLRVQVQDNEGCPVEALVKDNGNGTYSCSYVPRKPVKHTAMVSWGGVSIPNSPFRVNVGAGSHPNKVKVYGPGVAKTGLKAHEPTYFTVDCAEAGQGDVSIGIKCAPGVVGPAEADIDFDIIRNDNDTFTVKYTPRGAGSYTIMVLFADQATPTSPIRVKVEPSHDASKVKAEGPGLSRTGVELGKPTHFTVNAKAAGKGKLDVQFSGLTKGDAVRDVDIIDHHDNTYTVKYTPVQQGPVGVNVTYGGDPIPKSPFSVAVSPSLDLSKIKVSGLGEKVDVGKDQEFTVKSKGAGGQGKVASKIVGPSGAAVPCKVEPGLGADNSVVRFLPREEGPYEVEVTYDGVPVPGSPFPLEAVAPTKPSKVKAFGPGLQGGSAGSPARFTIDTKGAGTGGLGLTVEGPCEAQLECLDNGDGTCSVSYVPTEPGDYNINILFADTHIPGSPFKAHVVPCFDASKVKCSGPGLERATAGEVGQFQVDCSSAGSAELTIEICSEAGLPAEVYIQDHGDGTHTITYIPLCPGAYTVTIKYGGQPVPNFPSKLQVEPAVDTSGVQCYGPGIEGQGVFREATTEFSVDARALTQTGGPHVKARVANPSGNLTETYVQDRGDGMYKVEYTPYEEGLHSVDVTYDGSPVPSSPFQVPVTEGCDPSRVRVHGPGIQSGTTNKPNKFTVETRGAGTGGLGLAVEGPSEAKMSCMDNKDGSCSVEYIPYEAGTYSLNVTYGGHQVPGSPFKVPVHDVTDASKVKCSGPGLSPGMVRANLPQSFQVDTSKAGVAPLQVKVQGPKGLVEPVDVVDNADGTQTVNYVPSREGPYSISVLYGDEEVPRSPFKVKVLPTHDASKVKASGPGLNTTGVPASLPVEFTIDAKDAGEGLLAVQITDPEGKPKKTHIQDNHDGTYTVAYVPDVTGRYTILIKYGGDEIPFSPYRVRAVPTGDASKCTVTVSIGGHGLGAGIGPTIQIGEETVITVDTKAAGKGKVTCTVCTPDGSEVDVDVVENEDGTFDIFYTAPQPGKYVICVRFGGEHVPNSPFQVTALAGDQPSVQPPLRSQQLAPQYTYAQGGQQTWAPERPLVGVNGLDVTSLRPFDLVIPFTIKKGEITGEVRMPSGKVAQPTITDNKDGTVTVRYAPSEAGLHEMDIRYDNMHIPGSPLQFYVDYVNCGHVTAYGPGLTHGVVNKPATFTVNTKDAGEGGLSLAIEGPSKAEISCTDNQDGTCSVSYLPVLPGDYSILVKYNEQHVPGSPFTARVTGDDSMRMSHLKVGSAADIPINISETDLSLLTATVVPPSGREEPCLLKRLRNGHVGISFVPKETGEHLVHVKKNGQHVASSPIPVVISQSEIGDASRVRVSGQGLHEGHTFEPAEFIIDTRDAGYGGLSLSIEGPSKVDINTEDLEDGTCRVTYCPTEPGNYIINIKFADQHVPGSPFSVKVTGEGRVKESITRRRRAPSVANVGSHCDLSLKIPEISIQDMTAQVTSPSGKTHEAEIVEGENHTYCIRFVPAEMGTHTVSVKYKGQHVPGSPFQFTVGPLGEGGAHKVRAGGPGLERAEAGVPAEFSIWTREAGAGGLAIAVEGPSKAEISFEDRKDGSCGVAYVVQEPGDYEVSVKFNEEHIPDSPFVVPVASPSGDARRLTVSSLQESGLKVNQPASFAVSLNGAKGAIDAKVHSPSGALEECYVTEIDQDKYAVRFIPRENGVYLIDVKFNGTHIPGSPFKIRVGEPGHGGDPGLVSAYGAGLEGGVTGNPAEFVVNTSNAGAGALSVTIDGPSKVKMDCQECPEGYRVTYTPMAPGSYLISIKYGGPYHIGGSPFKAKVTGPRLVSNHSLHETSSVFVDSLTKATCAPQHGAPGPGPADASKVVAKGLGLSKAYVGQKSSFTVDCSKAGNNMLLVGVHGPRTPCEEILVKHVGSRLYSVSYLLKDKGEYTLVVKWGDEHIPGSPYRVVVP
smiles,measurement,setting,value
COCCOC(=O)C1=C(C)NC(C)=C(C(=O)OC/C=C/c2ccccc2)C1c1cccc([N+](=O)[O-])c1 (stereo not drawn) [cilnidipine],survival rate,[1],significant elongation of lifetime
same,survival rate,[2],significant increase of the survival rate
same,percentage of p53 accumulating cells relative to α-actinin-positive cells (aging of myocardial cell),[3],suppressive effects over aging of myocardial cell
same,inhibition of formation of the Drp1-filamin complex,Drp1-filamin complex,inhibits formation of the Drp1-filamin complex
same,"blocking effect on the calcium channel (ΔRatio, increase of intracellular calcium ion concentration)","calcium channel; Exemplary Experiment 12, 0, 1, 10, 100, and 1,000 nM, 30 minutes, 60 mM potassium chloride, FIG. 12",showed blocking effects exerted on the calcium channel
same,blocking effect on the calcium channel (ΔRatio),"calcium channel; Exemplary Experiment 15, at 1000 nM, FIG. 15",showed blocking effects on the calcium channel
same,percentage of blood HbA1c,[4],significant decrease of HbA1c
same,percentage of cells having vesicular mitochondria (suppression of mitochondrial division),"[5]; Exemplary Experiment 2, 1 μM, hypoxic environment 16 hours, FIG. 3",significantly suppress mitochondrial division
same,percentage of cells having vesicular mitochondria (suppression of mitochondrial division),"[5]; Exemplary Experiment 11, 1 μM, hypoxic environment 18 hours, FIG. 11",significantly suppress mitochondrial division
same,average length of mitochondrial fragments (suppression of mitochondrial division),[6],could not suppress mitochondrial division
same,blood sugar level,[7],blood sugar level getting closer to the normal level
same,average length of mitochondrial fragments (suppression of mitochondrial division),[8],could not suppress mitochondrial division
